Like-named read-outs stand apart in the source and are kept apart here.
What was measured:
Assay type in all cases: biochemical
Human spleen cathepsin S = target: T1, Human spleen cathepsin S (Homo sapiens, UniProt P25774); test: Cathepsin S assay, IC50 determination
T1 construct: Human spleen cathepsin S (Calbiochem 219344, 40 ng/mL); purchased Calbiochem 219344; host or cells: human spleen
Experimental: (§1) Human spleen cathepsin S (Calbiochem 219344, 40 ng/mL) was assayed using 15 microM Z-Phe-Arg-AMC substrate. Human liver cathepsin B (Calbiochem 219362, 65 ng/mL) was assayed using 15 microM Z-Arg-Arg-AMC substrate (Bachem I-1135). All reactions were performed in 20 mM sodium acetate buffer containing 1 mM EDTA and 5 mM cysteine, pH 5.5.
(§2) Compounds were serially diluted in DMSO and transferred into a 96-well Corning 3686 assay microplate to give a 16-point two-fold serial dilution dose response ranging from 25 microM to 760 pM. Human liver cathepsin L (Calbiochem 219402) was activated by incubating with assay buffer for 30 min. Upon activation, cathepsin L (300 pM, 8.7 ng/mL) was incubated with 1 microM Z-Phe-Arg-AMC substrate (Sigma C9521) and test compound in […] of assay buffer for 1 hour at room temperature. Fluorescence of AMC released by enzyme-catalyzed hydrolysis of Z-Phe-Arg-AMC was read on a PerkinElmer Envision microplate reader (excitation 355 nm, emission 460 nm). Data were scaled using internal controls and fitted to a four-parameter logistic model (IDBS XLfit equation 205) to obtain IC50 values in triplicate.
(§3) Compound No. 1 was assayed for inhibition against papain and cathepsins B, G, K, S, and V. Papain from Carica papaya (Calbiochem 5125, 11 ng/mL), human cathepsin K (Calbiochem 342001, 35 ng/mL), human spleen cathepsin S (Calbiochem 219344, 40 ng/mL), and human cathepsin V (Calbiochem 219467, 39 ng/ml) were assayed using Z-Phe-Arg-AMC substrate at 20 μM, 20 μM, 15 μM, and 1 μM, respectively. Human liver cathepsin B (Calbiochem 219362, 65 ng/mL) was assayed using 15 μM Z-Arg-Arg-AMC substrate (Bachem I-1135). Human neutrophil cathepsin G (Calbiochem 219373, 4.2 μg/mL) was assayed using 15 μM Suc-Ala-Ala-Pro-Phe-AMC substrate (Sigma S9761). All reactions were performed in 20 mM sodium acetate buffer containing 5 mM cysteine and 1 mM EDTA, pH 5.5. Reaction progress was monitored using the Envision microplate reader. IC50 values were measured in triplicate.

Human liver cathepsin B = target: T2, Human liver cathepsin B (Homo sapiens, UniProt P07858); test: Cathepsin B assay, IC50 determination
T2 construct: Human liver cathepsin B (Calbiochem 219362, 65 ng/mL); purchased Calbiochem 219362; host or cells: human liver
Experimental: as §1, §2, §3

human liver cathepsin L = target: T3, human liver cathepsin L (Homo sapiens, UniProt P07711); test: Cathepsin L assay, IC50 determination
T3 construct: 8.7 ng/mL human liver cathepsin L (Calbiochem 219402); purchased Calbiochem 219402; host or cells: human liver
Experimental: Assay buffer consisted of 20 mM sodium acetate, 1 mM ethylenediaminetetraacetic acid (EDTA) and 5 mM cysteine, pH 5.5. Cathepsin L was incubated in assay buffer for 30 minutes prior to dispensing into wells to allow for efficient reduction of the active site cysteine required for full enzymatic activity.
Upon activation, cathepsin L (300 pM, 8.7 ng/mL) was incubated with 1 microM Z-Phe-Arg-AMC substrate (Sigma C9521) and test compound in […] of assay buffer for 1 hour at room temperature.
All reactions were performed in 20 mM sodium acetate buffer containing 5 mM cysteine and 1 mM EDTA, pH 5.5. Reaction progress was monitored using the Envision microplate reader. IC50 values were measured in triplicate.

[1] = Table 17, n = 3, C, S or O at the sulfur position, read-out: Cathepsin L inhibitory activity IC50

T1 sequence (P25774 115-331): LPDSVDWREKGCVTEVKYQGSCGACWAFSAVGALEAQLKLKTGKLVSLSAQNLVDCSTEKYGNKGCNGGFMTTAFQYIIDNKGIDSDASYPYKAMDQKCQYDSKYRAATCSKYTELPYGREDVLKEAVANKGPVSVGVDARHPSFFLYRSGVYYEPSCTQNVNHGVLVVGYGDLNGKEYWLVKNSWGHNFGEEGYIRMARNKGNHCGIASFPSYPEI
T3 sequence (P07711 114-288 limits assumed): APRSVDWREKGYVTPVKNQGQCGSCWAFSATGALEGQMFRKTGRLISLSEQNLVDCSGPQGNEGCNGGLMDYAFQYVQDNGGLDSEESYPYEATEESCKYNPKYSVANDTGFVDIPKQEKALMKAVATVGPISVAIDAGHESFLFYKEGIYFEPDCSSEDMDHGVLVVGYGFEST
T3 sequence (P07711 292-333 limits assumed): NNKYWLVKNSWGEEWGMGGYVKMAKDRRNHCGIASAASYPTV

Structure (SMILES)	IC50 (Human spleen cathepsin S; Table 1, read-out: IC50 Cat S)	IC50 (Human liver cathepsin B; Table 1, read-out: IC50 Cat B)	IC50 (human liver cathepsin L; Table 1, read-out: IC50 Cat L)	also measured
CC(C)(C)OC(=O)N[C@@H](COCc1ccccc1)C(=O)NNC(=O)SCC(=O)N1CCCc2ccccc21 [Compound No. 47]	2.64 µM	13.2 µM	1.51 µM	
CC(C)(C)OC(=O)N[C@@H](Cc1c[nH]c2ccccc12)C(=O)NNC(=O)SCC(=O)N1CCc2ccccc2C1 [Compound No. 12]	0.53 µM	3.25 µM	0.019 µM	
CCc1ccccc1NCCSC(=O)NNC(=O)[C@H](Cc1ccccc1)NC(=O)OC(C)(C)C [Compound No. 35]	> 25 µM	> 25 µM	> 25 µM	
CCc1ccccc1NC(=O)CSC(=O)NNC(=O)[C@@H](Cc1c[nH]c2ccccc12)NC(=O)OC(C)(C)C [Compound No. 16]	> 25 µM	> 25 µM	> 25 µM	
CCc1ccccc1NC(=O)CSC(=O)NNC(=O)[C@H](COCc1ccccc1)NC(=O)OC(C)(C)C [Compound No. 46]	2.15 µM	14.3 µM	1.27 µM	
CC(C)(C)OC(=O)N[C@@H](COCc1ccccc1)C(=O)NNC(=O)SCC(=O)N1CCc2ccccc2C1 [Compound No. 50]	0.95 µM	9.28 µM	0.37 µM	
CCc1ccccc1NC(=O)CSC(=O)NNC(=O)CNC(=O)OC(C)(C)C [Compound No. 64]	> 25 µM	≥ 25 µM	> 25 µM	
CC(C)(C)OC(=O)N[C@@H](Cc1c[nH]c2ccccc12)C(=O)NNC(=O)SC1CCN(c2ccccc2)C1=O (stereo partly shown) [Compound No. 14]	2.07 µM	14 µM	1.05 µM	
CCc1ccccc1NC(=O)CSC(=O)NNC(=O)[C@@H](C)COCc1ccc(OC)cc1 [Compound No. 72]	> 25 µM	> 25 µM	> 25 µM	
CC(C)(C)OC(=O)N[C@@H](Cc1c[nH]c2ccccc12)C(=O)NNC(=O)SCC(=O)N1CCCc2ccccc21 [Compound No. 5]	0.93 µM	4.46 µM	0.096 µM	
CCc1ccccc1NC(=O)CSC(=O)NNC(=O)[C@@H](C)CO [Compound No. 69]	> 25 µM	> 25 µM	> 25 µM	
CCc1ccccc1NC(=O)CSC(=O)NNC(=O)[C@@H](Cc1c[nH]c2ccccc12)NC(=O)OC(C)(C)C [R-enantiomer of Compound No. 1]				IC50 (human liver cathepsin L; read-out: IC50 against cathepsin L): 34 µM
CCc1ccccc1NC(=O)CSC(=O)NNC(=O)C[C@@H](Cc1c[nH]c2ccccc12)NC(=O)OC(C)(C)C [Compound No. 86]	> 25 µM	> 25 µM	> 25 µM	
CCc1ccccc1NC(=O)CSC(=O)NNC(=O)[C@H](CCCCNC(=O)OCc1ccccc1)NC(=O)OC(C)(C)C [Compound No. 58]	2.15 µM	14.3 µM	1.27 µM	
C[C@H](NC(=O)OC(C)(C)C)C(=O)NNC(=O)SCC(=O)N1CCCc2ccccc21 [Compound No. 26]	> 25 µM	> 25 µM	≥ 25 µM	
COC(=O)CSC(=O)NNC(=O)[C@H](Cc1c[nH]c2ccccc12)NC(=O)OC(C)(C)C [Compound No. 15]	0.57 µM	6.33 µM	0.098 µM	
CCc1ccccc1NC(=O)CSC(=O)NNC(=O)[C@H](Cc1ncc[nH]1)NC(=O)OC(C)(C)C [Compound No. 65]	> 25 µM	13.7 µM	> 25 µM	

Structure (SMILES)	IC50 (Human spleen cathepsin S; Table 1, read-out: IC50 Cat S)	IC50 (Human liver cathepsin B; Table 1, read-out: IC50 Cat B)	IC50 (human liver cathepsin L; Table 1, read-out: IC50 Cat L)	also measured
CC(C)(C)OC(=O)N[C@@H](Cc1ncc[nH]1)C(=O)NNC(=O)SCC(=O)N1CCCc2ccccc21 [Compound No. 66]	> 25 µM	11.6 µM	> 25 µM	
CCc1ccccc1NC(=O)CSC(=O)NNC(=O)C[C@H](COCc1ccccc1)NC(=O)OC(C)(C)C [Compound No. 82]	4.47 µM	> 25 µM	> 25 µM	
CC(C)(C)OC(=O)N[C@@H](Cc1c[nH]c2ccccc12)C(=O)NNC(=O)OCc1ccccc1 [Compound No. 94]				IC50 (Human spleen cathepsin S; Tables 2-11, read-out: Cat S): 4.1 µM; IC50 (Human liver cathepsin B; Tables 2-11, read-out: Cat B): ≥ 25 µM; IC50 (human liver cathepsin L; Tables 2-11, read-out: Cat L): 0.806 µM
Cc1ccc(S(=O)(=O)NNC(=O)[C@H](Cc2ccc(OC(=O)OC(C)(C)C)cc2)NC(=O)OC(C)(C)C)cc1 [Compound No. 122]				IC50 (Human spleen cathepsin S; Tables 2-11, read-out: Cat S): ≥ 25 µM; IC50 (Human liver cathepsin B; Tables 2-11, read-out: Cat B): ≥ 25 µM; IC50 (human liver cathepsin L; Tables 2-11, read-out: Cat L): ≥ 25 µM
CCOC(=O)NNC(=O)[C@H](Cc1c[nH]c2ccccc12)NC(=O)OC(C)(C)C [Compound No. 95]				IC50 (Human spleen cathepsin S; Tables 2-11, read-out: Cat S): ≥ 25 µM; IC50 (Human liver cathepsin B; Tables 2-11, read-out: Cat B): ≥ 25 µM; IC50 (human liver cathepsin L; Tables 2-11, read-out: Cat L): ≥ 25 µM
CC(C)(C)OC(=O)N[C@@H](CCC(=O)NC1c2ccccc2Oc2ccccc21)C(=O)NNC(=O)SCC(=O)N1CCCc2ccccc21 [Compound No. 60]	> 25 µM	> 25 µM	> 25 µM	
CC(OCc1ccccc1)[C@H](NC(=O)OC(C)(C)C)C(=O)NNC(=O)SCC(=O)N1CCCc2ccccc21 (stereo partly shown) [Compound No. 45]	5.15 µM	4.35 µM	> 25 µM	
CC(C)(C)OC(=O)N[C@@H](Cc1c[nH]c2ccccc12)C(=O)N/N=C/c1ccccc1 [Compound No. 123]				IC50 (Human spleen cathepsin S; Tables 2-11, read-out: Cat S): ≥ 25 µM; IC50 (Human liver cathepsin B; Tables 2-11, read-out: Cat B): ≥ 25 µM; IC50 (human liver cathepsin L; Tables 2-11, read-out: Cat L): ≥ 25 µM
CCc1ccccc1NC(=O)CSC(=O)NNC(=O)[C@H](CCSC)NC(=O)OC(C)(C)C [Compound No. 17]	0.69 µM	2.03 µM	1.29 µM	
CSCC[C@H](NC(=O)OC(C)(C)C)C(=O)NNC(=O)SCC(=O)N1CCc2ccccc2C1 [Compound No. 19]	0.41 µM	2.31 µM	0.52 µM	
CCc1ccccc1NC(=O)CSC(=O)NNC(=O)[C@@H](NC(=O)OC(C)(C)C)C(C)C [Compound No. 21]	3.74 µM	0.87 µM	0.66 µM	
CCc1ccccc1NC(=O)CSC(=O)NNC(=O)[C@H](C)NC(=O)OC(C)(C)C [Compound No. 25]	> 25 µM	> 25 µM	≥ 25 µM	
CC(C)(C)OC(=O)N[C@@H](CCCCNC(=O)OCc1ccccc1)C(=O)NNC(=O)SCC(=O)N1CCCc2ccccc21 [Compound No. 57]	5.15 µM	4.35 µM	> 25 µM	
CC(C)(C)OC(=O)NC(Cc1c[nH]c2ccccc12)C(=O)NNC(=O)SCC(=O)N1CCCc2ccccc21 (stereo not shown) [Tetrahydroquinoline S]				IC50 (human liver cathepsin L; [1]): 0.041 ± 0.002 µM
CCc1ccccc1NC(=O)COC(=O)NNC(=O)C(Cc1c[nH]c2ccccc12)NC(=O)OC(C)(C)C (stereo not shown) [2-ethylanilide O]				IC50 (human liver cathepsin L; [1]): 0.028 ± 0.004 µM
CCc1ccccc1NC(=O)CSc1nnc([C@@H](N)Cc2c[nH]c3ccccc23)o1 [Compound (ii)]				cathepsin L inhibitory activity (in words) (human liver cathepsin L): completely devoid of activity
